# Source: patent US5690957A, “Prostaglandin derivatives” (Ono Pharmaceutical Co., Ltd., priority 1995, dated 1997)
# Experiments:
# [1] = Blood flow increasing effect in anesthetized rats (laser-Doppler cutaneous blood flow, AUC); format: in vivo; conditions: i.v., rat
# Description: (§1) The blood flow increasing effect and hypotensive effect of the compounds of the present invention were determined by the following experiment.
# (§2) Male rats weighing 200-350 g were anesthetized with urethane (25% urethane, 6 ml/kg, s.c.). The carotid artery and jugular vein were cannulated with polyethylene tubes for measurement of blood pressure and for drug injection, respectively. Blood pressure was obtained with a disposable pressure transducer kit (Spectramed, Ltd) and recorded with a recticoder (model RJG-4128, Nihon kohden, Ltd). Blood flow was monitored as cutaneous blood flow of the dorsum pedis using an attachment-type laser-Doppler flowmeter (model ALF21, Advance, Ltd). Measurements were taken until the values recovered to the level observed before injection of drugs. Injection time was about 10 seconds. The hypotensive effect and blood flow increasing effect were calculated as the maximal hypotensive activity (mmHg) and the area under the curve (AUC) after injection of drugs, respectively.
# (§3) The results were represented by the dose required to obtain an effective increase in blood flow (main effect), and by the hypotensive effect (side effect) at the same dose.
# (§4) The compounds of the present invention were administered in the form of a liposome formulation (as prepared in Example 4 below). As a comparative compound, PGE1 1-decanoyloxyethyl ester (described in Example 10 of the specification of Japanese Patent Kokai No. 59-206349) was administered in the form of a lipid emulsion (prepared in Reference Example 8 in the present specification).
# The effectiveness of increasing blood flow was determined by the following method. […] In the above-described experimental assessment system for the compounds of the present invention, the AUG for this PGE1 lipid emulsion (5 μg/kg, i.v.) was 771 on the blood flow increasing effect; thus this value was chosen as an effective value for increase in blood flow.
# [2] = Hypotensive effect in anesthetized rats (carotid artery blood pressure); format: in vivo; conditions: rat; for Hypotensive effect, Maximum hypotension on dose (A): at dose (A) giving AUC = 771, i.v.; for Hypotensive effect, Maximum hypotension: i.v.
# Description: as §1, §2, §3, §4
# [3] = dose 1 μg/kg, Examples as liposome formulation, comparative compound as lipid emulsion
# [4] = dose 3 μg/kg, Examples as liposome formulation, comparative compound as lipid emulsion
# [5] = dose 10 μg/kg, Examples as liposome formulation, comparative compound as lipid emulsion
# [6] = Examples as liposome formulation, comparative compound as lipid emulsion
# [7] = dose 30 μg/kg, liposome formulation
Compound,"Blood flow increasing effect, Total AUC [1, 3]","Blood flow increasing effect, Total AUC [1, 4]","Blood flow increasing effect, Total AUC [1, 5]","Blood flow increasing effect, Dose (A) required to obtain AUC = 771 [1, 6]","Hypotensive effect, Maximum hypotension on dose (A) [2, 6]","Hypotensive effect, Maximum hypotension [2, 3]","Hypotensive effect, Maximum hypotension [2, 4]","Hypotensive effect, Maximum hypotension [2, 5]","Blood flow increasing effect, Total AUC [1, 7]","Hypotensive effect, Maximum hypotension [2, 7]"
"CCCCCCCCCC(=O)OC(C)OC(=O)CCCCCC[C@H]1C(=O)C[C@@H](O)[C@@H]1/C=C/[C@@H](O)CCCCC (some centres unmarked) [Comparative compound, PGE1 1-decanoyloxyethyl ester, reference compound]",92,222,498,16.70 µg/kg,30.2 mmHG,1 mmHg,9 mmHg,18 mmHg,–,–
"CCCCCCCCCCCCCCCCOCC(=O)OCCOC(=O)CCCCCC[C@H]1C(=O)C[C@@H](O)[C@@H]1/C=C/[C@@H](O)CCCCC [Example 2, PGE1 2-(hexadecyloxyacetoxy)ethyl ester]",–,329,807,8.14 µg/kg,6.1 mmHG,–,3 mmHg,7 mmHg,3248,20 mmHg
"CCCCCCCCCCCC(=O)OCCOC(=O)CCCCCC[C@H]1C(=O)C[C@@H](O)[C@@H]1/C=C/[C@@H](O)CCCCC [Example 1, PGE1 (dodecanoyloxy)ethyl ester]",175,1914,3528,1.47 µg/kg,4.3 mmHG,3 mmHg,7 mmHg,13 mmHg,–,–
"CCCCCCCCCCCCOCC(=O)OCCOC(=O)CCCCCC[C@H]1C(=O)C[C@@H](O)[C@@H]1/C=C/[C@@H](O)CCCCC [Example 3, PGE1 2-(dodecyloxyacetoxy)ethyl ester]",227,4028,5391,1.14 µg/kg,2.8 mmHG,2 mmHg,9 mmHg,9 mmHg,–,–
